From US10168342B2, “Lipid probes and uses thereof” (THE SCRIPPS RESEARCH INSTITUTE, priority 2015, dated 2019)
Where two headings read alike, the source gives them in different places.

Legend:
[1] = target: T1, AEA-DA lipid probe targets in Neuro2a cells (Mus musculus, UniProt O08749)
T1 sequence (O08749 36-509): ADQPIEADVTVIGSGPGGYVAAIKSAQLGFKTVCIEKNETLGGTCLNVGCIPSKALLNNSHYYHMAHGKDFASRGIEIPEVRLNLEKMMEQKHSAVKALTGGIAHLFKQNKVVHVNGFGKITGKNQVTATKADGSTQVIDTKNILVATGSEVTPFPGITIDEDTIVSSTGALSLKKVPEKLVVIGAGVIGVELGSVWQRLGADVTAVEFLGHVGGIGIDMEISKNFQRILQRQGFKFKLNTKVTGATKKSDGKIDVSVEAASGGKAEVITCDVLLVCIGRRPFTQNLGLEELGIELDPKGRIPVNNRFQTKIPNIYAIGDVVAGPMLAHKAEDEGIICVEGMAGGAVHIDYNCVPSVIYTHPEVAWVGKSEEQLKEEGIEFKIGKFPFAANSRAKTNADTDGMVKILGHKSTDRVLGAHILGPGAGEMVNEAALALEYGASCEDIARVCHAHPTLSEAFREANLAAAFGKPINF

[2] = target: T2, AEA-DA lipid probe targets in Neuro2a cells (Mus musculus, UniProt Q61035)
T2 sequence (Q61035 1-509): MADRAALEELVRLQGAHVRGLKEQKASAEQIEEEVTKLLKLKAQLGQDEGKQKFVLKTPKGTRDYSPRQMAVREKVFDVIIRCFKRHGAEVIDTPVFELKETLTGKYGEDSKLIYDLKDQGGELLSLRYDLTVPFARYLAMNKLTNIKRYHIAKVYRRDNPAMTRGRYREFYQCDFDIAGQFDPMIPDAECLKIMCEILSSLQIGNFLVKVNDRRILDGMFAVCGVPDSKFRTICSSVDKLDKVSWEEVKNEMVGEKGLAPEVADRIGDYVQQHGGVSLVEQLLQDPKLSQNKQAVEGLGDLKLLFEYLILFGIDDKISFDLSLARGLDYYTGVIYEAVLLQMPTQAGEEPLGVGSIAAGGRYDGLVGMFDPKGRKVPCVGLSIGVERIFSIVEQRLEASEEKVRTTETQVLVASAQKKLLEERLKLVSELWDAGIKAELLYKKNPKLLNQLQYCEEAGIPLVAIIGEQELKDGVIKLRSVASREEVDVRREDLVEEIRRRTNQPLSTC

[3] = target: T3, AEA-DA lipid probe targets in Neuro2a cells (Mus musculus, UniProt Q60605)
T3 sequence (Q60605 1-151): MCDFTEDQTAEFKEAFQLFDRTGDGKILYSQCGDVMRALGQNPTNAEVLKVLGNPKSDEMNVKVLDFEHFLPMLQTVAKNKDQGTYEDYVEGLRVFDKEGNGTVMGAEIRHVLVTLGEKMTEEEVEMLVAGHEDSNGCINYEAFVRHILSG

[4] = target: T4, AEA-DA lipid probe targets in Neuro2a cells (Mus musculus, UniProt Q3V009)
T4 sequence (Q3V009 25-227): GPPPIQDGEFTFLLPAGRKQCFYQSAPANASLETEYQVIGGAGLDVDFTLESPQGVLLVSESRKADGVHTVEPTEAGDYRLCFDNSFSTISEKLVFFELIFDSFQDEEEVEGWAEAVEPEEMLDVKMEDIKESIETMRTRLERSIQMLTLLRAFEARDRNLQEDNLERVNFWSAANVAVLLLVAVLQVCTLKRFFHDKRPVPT

[5] = target: T5, AEA-DA lipid probe targets in Neuro2a cells (Mus musculus, UniProt P35564)
T5 sequence (P35564 21-591): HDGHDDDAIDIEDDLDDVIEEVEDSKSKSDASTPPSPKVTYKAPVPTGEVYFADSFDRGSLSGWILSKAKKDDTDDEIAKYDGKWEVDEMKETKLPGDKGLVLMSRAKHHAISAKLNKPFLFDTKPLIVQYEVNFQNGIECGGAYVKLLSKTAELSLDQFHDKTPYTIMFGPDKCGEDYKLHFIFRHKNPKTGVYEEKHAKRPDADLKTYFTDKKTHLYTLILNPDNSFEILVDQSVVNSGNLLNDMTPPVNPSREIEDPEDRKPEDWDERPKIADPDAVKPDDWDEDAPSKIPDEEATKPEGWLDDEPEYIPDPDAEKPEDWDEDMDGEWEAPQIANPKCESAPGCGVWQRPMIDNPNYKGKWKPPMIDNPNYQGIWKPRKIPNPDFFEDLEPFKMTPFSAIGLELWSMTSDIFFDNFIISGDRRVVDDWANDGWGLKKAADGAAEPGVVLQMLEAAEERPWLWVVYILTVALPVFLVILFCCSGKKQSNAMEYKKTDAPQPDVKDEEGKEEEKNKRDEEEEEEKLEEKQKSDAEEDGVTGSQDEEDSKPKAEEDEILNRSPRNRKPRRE

[6] = target: T6, AEA-DA lipid probe targets in Neuro2a cells (Mus musculus, UniProt Q9CRD0)
T6 sequence (Q9CRD0 1-247): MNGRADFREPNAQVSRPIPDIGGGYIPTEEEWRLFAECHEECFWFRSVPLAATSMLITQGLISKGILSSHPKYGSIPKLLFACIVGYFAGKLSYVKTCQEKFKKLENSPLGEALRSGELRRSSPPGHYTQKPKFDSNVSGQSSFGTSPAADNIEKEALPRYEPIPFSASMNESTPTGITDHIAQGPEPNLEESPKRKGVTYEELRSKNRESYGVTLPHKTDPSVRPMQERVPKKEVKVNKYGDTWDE

Row | SMILES | SILAC ratio Dld ([1]; competitor 25 μM) | SILAC ratio Hars ([2]; competitor 25 μM) | SILAC ratio Myl6 ([3]; competitor 25 μM) | SILAC ratio, Tmed1 ([4]; competitor 25 μM) | SILAC ratio, Canx ([5]; competitor 25 μM) | SILAC ratio Ociad1 ([6]; competitor 25 μM) | also measured
1 | CCCCC/C=C\C/C=C\C/C=C\C/C=C\CCCC(=O)NCCO [AEA, anandamide, reference compound] | – | – | – | – | – | – | SILAC ratio Dld ([1]; competitor 200 μM): 1.1; SILAC ratio Hars ([2]; competitor 200 μM): 1.2; SILAC ratio Myl6 ([3]; competitor 200 μM): 1.0; SILAC ratio, Tmed1 ([4]; competitor 200 μM): 2.1; SILAC ratio, Canx ([5]; competitor 200 μM): 1.6; SILAC ratio Ociad1 ([6]; competitor 200 μM): 1.6
2 | O=C(/C=C/c1cccnc1)NCCCCC1CCN(C(=O)c2ccccc2)CC1 [FK-866, reference compound] | 1.1 | 1.3 | 1.3 | 1.3 | 1.2 | 1.1 | –
3 | CN1CCN(C(=O)c2c(-c3ccccc3)c3cc([N+](=O)[O-])ccc3n2C)CC1 [KML110, (1-Methyl-5-nitro-3-phenyl-1H-indol-2-yl)(4-methylpiperazin-1-yl)methanone] | 1.3 | 1.5 | 1.4 | 1.6 | 1.6 | 1.3 | –
4 | CN1CCN(C(=O)c2[nH]c3ccc([N+](=O)[O-])cc3c2-c2ccccc2)CC1 [MJN228, (4-Methylpiperazin-1-yl)(5-nitro-3-phenyl-1H-indol-2-yl)methanone] | 1.2 | 1.5 | 1.0 | 1.6 | 1.7 | 1.4 | SILAC ratio Dld ([1]; competitor 10 μM): 1.2; SILAC ratio Dld ([1]; competitor 50 μM): 1.2; SILAC ratio Dld ([1]; competitor 100 μM): 1.1; SILAC ratio Hars ([2]; competitor 10 μM): 1.6; SILAC ratio Hars ([2]; competitor 50 μM): 1.0; SILAC ratio Hars ([2]; competitor 100 μM): 1.4; SILAC ratio Myl6 ([3]; competitor 10 μM): 1.1; SILAC ratio Myl6 ([3]; competitor 50 μM): 1.3; SILAC ratio, Tmed1 ([4]; competitor 10 μM): 1.1; SILAC ratio, Tmed1 ([4]; competitor 50 μM): 2.1; SILAC ratio, Tmed1 ([4]; competitor 100 μM): 2.2; SILAC ratio, Canx ([5]; competitor 10 μM): 1.3; SILAC ratio, Canx ([5]; competitor 50 μM): 1.8; SILAC ratio, Canx ([5]; competitor 100 μM): 2.6; SILAC ratio Ociad1 ([6]; competitor 10 μM): 1.1; SILAC ratio Ociad1 ([6]; competitor 50 μM): 1.1; SILAC ratio Ociad1 ([6]; competitor 100 μM): 1.5
5 | C=CCN(C)CCCCCCOc1ccc(C(=O)c2ccc(Br)cc2)c(F)c1 [Ro 48-8071, reference compound] | 0.8 | 0.9 | 0.7 | 1.2 | 1.2 | 1.0 | –
